Our source for the IC50 values is article PMC7503713, “GANT61 Reduces Hedgehog Molecule (GLI1) Expression and Promotes Apoptosis in Metastatic Oral Squamous Cell Carcinoma Cells” (International Journal of Molecular Sciences, 2020).

What all share (format): cell-based, human
One test deals with K562. Description: alamarBlue cytotoxicity assay, K562. Conditions: Homo sapiens, 72 h of incubation. The protocol:
(§1) To assess the cytotoxicity of the GLI inhibitor GANT61 (Sigma-Aldrich, St. Louis, MO, USA) in tumor and non-tumor cell lines, an alamarBlue assay (Sigma-Aldrich Chemical Co, St. Louis, MO, USA) was performed after 72 h of exposure to the inhibitor, as described by Ahmed et al., 1994 [46]. Cells were distributed on 96-well plates at a density of 7 × 10^4 cells/mL for adhered cells, and 3 × 10^5 cells/mL for cells in suspension. All tested compounds were dissolved in DMSO, added to wells containing 100 µL of cells in complete medium, and then incubated for 72 h. Eight concentrations of GANT61 (0.19 to 50 µg/mL), Doxorubicin (Laboratory IMA S.A.I.C., Buenos Aires, Argentina), and 5-Fluorouracil (5-FU, Sigma-Aldrich, St. Louis, MO, USA), both used as positive controls at concentrations ranging from 0.03 to 5 µg/mL, were added to respective wells. Cells treated with the vehicle (0.5% DMSO) used to dilute the tested compounds were used as negative controls. Before the end of the incubation period (4 h for cell lines and 24 h for PBMCs), 20 µL of alamarBlue stock solution (resazurin, Sigma-Aldrich, St. Louis, MO, USA) was added to each well. Absorbance was measured at 570 nm (reduced) and 595 nm (oxidized) wavelengths, using a Spectramax 190 plate reader (Molecular Devices; Sunnyvale, CA, USA).
(§2) Statistical analyses were performed, using GraphPad Prism v. 6.03 (GraphPad Software, Inc., San Diego, USA). Data were analyzed according to distribution along the normal Gaussian curve. IC50 values were obtained through non-linear regression, using results from three independent experiments carried out in duplicate. Differences between groups resulting from in vitro assays were evaluated by ANOVA (analysis of variance) testing, followed by the Student–Newman–Keuls test. This study considered a level of significance, corresponding to alpha (α) or “p” value, when results were less than or equal to 5%.
For orientation: Alamar Blue is a resazurin reagent that responds to reducing activity.

Another test concerns APC02. Description: alamarBlue cytotoxicity assay, APC02. Conditions: Homo sapiens, 72 h of incubation. As for the experimental part: as §1, with “Cells treated with the vehicle (0.5% DMSO) used to dilute the tested compounds were used as negative controls. Before the end of the incubation period (4 h for cell lines and 24 h for PBMCs), 20 µL of alamarBlue stock solution (resazurin, Sigma-Aldrich, St. Louis, MO, USA) was added to each well.” left out
(§3) Statistical analyses were performed, using GraphPad Prism v. […] Data were analyzed according to distribution along the normal Gaussian curve. […] Differences between groups resulting from in vitro assays were evaluated by ANOVA (analysis of variance) testing, followed by the Student–Newman–Keuls test. […]

Another test has as its system HT-29. As to the kind of experiment: alamarBlue cytotoxicity assay, HT-29. The conditions noted are these: Homo sapiens; HT-29, alamarBlue, 72 h of incubation. As for the experimental part:
as §1, with “Cells treated with the vehicle (0.5% DMSO) used to dilute the tested compounds were used as negative controls. Before the end of the incubation period (4 h for cell lines and 24 h for PBMCs), 20 µL of alamarBlue stock solution (resazurin, Sigma-Aldrich, St. Louis, MO, USA) was added to each well.” left out
as §3

A further test relates to HCT-116. Description: alamarBlue cytotoxicity assay, HCT-116. The conditions noted are these: Homo sapiens; HCT-116, alamarBlue, 72 h of incubation. As for the experimental part: as §1, §2
In another test the test system is SCC4. Description: alamarBlue cytotoxicity assay, SCC4. Conditions: Homo sapiens, SCC-4, 72 h of incubation. The protocol: as §1, with “Cells treated with the vehicle (0.5% DMSO) used to dilute the tested compounds were used as negative controls. Before the end of the incubation period (4 h for cell lines and 24 h for PBMCs), 20 µL of alamarBlue stock solution (resazurin, Sigma-Aldrich, St. Louis, MO, USA) was added to each well.” left out
as §3

Another test concerns HaCat. Description: alamarBlue cytotoxicity assay, HaCat. Conditions: Homo sapiens, 72 h of incubation. The protocol:
as §1, with “Cells treated with the vehicle (0.5% DMSO) used to dilute the tested compounds were used as negative controls. Before the end of the incubation period (4 h for cell lines and 24 h for PBMCs), 20 µL of alamarBlue stock solution (resazurin, Sigma-Aldrich, St. Louis, MO, USA) was added to each well.” left out
as §3

The next test relates to PBMC. Description: alamarBlue cytotoxicity assay, PBMC. The conditions noted are these: Homo sapiens, 72 h of incubation. As for the experimental part:
Human peripheral blood mononuclear cells (PBMC) lymphocytes and monocytes) were obtained from the peripheral blood of healthy, non-smoking volunteers aged 25–35 years. None of the volunteers had used any type of drug or medication for at least 15 days prior to collection. Blood collection (5 mL) was performed in heparinized vials by trained professionals at the Laboratory of Tissue Engineering and Immunopharmacology (LETI, IGM-FIOCRUZ, Salvador, Brazil), using sterile disposable syringes. PBMCs were isolated by a standard protocol described by Dias et al. (2018). The institutional review board of the Gonçalo Moniz Institution, Oswaldo Cruz Foundation (IGM-FIOCRUZ), in Salvador, Bahia, Brazil, approved all experimental protocols (No.031019/2013). All participants provided written informed consent prior to participation in the study.
To assess the cytotoxicity of the GLI inhibitor GANT61 (Sigma-Aldrich, St. Louis, MO, USA) in tumor and non-tumor cell lines, an alamarBlue assay (Sigma-Aldrich Chemical Co, St. Louis, MO, USA) was performed after 72 h of exposure to the inhibitor, as described by Ahmed et al., 1994 [46]. Cells were distributed on 96-well plates at a density of 7 × 10^4 cells/mL for adhered cells, and 3 × 10^5 cells/mL for cells in suspension. All tested compounds were dissolved in DMSO, added to wells containing 100 µL of cells in complete medium, and then incubated for 72 h. […] Absorbance was measured at 570 nm (reduced) and 595 nm (oxidized) wavelengths, using a Spectramax 190 plate reader (Molecular Devices; Sunnyvale, CA, USA).
as §3

For the next test, the system named is APC03. Description: alamarBlue cytotoxicity assay, APC03. Conditions: Homo sapiens, 72 h of incubation. As for the experimental part:
as §1, with “Cells treated with the vehicle (0.5% DMSO) used to dilute the tested compounds were used as negative controls. Before the end of the incubation period (4 h for cell lines and 24 h for PBMCs), 20 µL of alamarBlue stock solution (resazurin, Sigma-Aldrich, St. Louis, MO, USA) was added to each well.” left out
as §3

The subject of a further test is HepG2. Description: alamarBlue cytotoxicity assay, HepG2. Conditions: Homo sapiens, 72 h of incubation. The protocol:
as §1, §2

In a further test the test system is HSC3. As to the kind of experiment: alamarBlue cytotoxicity assay, HSC3. Conditions: Homo sapiens, HSC-3, 72 h of incubation. As for the experimental part:
For cytotoxicity assessments, this study primarily focused on the highly metastatic HSC3 OSCC cell line (JCRB Cell Bank, Osaka, Japan) and employed other histological tumor cell types and non-tumor cells (Supplementary Table S1). HSC3 cells were placed in flasks ([…], 250 mL volume) containing DMEM medium (Gibco, Lif Technologies, Gaithesburg, MD, USA) supplemented with 10% fetal bovine serum (FBS, Gibco, Life Technologies, Gaithesburg, MD, USA) 1% penicillin, 1% streptomycin (Gibco, Life Technologies, Gaithesburg, MD, USA), and 0.8% hydrocortisone (Sigma-Aldrich, St. Louis, MO, USA). Cells were cultured and kept in incubators, under an atmosphere of 5% CO2 at 37 °C. Trypsinization was used to dissociate cells when cell growth reached the necessary confluence, i.e., 70 to 80% of the total culture flask volume. Cell cultures were tested periodically for mycoplasma contamination and evaluated by using a luminometer, according to the MycoAlert^TM PLUS protocol (Lonza, Walkersville Inc., Walkersville, MD, USA, 2012).
as §1
Statistical analyses were performed, using GraphPad Prism v. 6.03 (GraphPad Software, Inc., San Diego, USA). Data were analyzed according to distribution along the normal Gaussian curve. […] Differences between groups resulting from in vitro assays were evaluated by ANOVA (analysis of variance) testing, followed by the Student–Newman–Keuls test. […]

The next test deals with SCC25. Description: alamarBlue cytotoxicity assay, SCC25. The conditions noted are these: Homo sapiens, SCC-25, 72 h of incubation. As for the experimental part: as §1, with “Cells treated with the vehicle (0.5% DMSO) used to dilute the tested compounds were used as negative controls. Before the end of the incubation period (4 h for cell lines and 24 h for PBMCs), 20 µL of alamarBlue stock solution (resazurin, Sigma-Aldrich, St. Louis, MO, USA) was added to each well.” left out
as §3

A further test relates to AGP01. Description: alamarBlue cytotoxicity assay, AGP01. The conditions noted are these: Homo sapiens, 72 h of incubation. As for the experimental part: as §1, with “Cells treated with the vehicle (0.5% DMSO) used to dilute the tested compounds were used as negative controls. Before the end of the incubation period (4 h for cell lines and 24 h for PBMCs), 20 µL of alamarBlue stock solution (resazurin, Sigma-Aldrich, St. Louis, MO, USA) was added to each well.” left out
as §3

Another test relates to SCC15. As to the kind of experiment: alamarBlue cytotoxicity assay, SCC15. The conditions noted are these: Homo sapiens, SCC-15, 72 h of incubation. As for the experimental part:
as §1, with “Cells treated with the vehicle (0.5% DMSO) used to dilute the tested compounds were used as negative controls. Before the end of the incubation period (4 h for cell lines and 24 h for PBMCs), 20 µL of alamarBlue stock solution (resazurin, Sigma-Aldrich, St. Louis, MO, USA) was added to each well.” left out
as §3

The subject of another test is CAL27. As to the kind of experiment: alamarBlue cytotoxicity assay, CAL27. The conditions noted are these: Homo sapiens, CAL-27, 72 h of incubation. As for the experimental part:
as §1, §2

For the next test, the system named is HL60. As to the kind of experiment: alamarBlue cytotoxicity assay, HL60. Conditions: Homo sapiens, HL-60, 72 h of incubation. The protocol: as §1, with “Cells treated with the vehicle (0.5% DMSO) used to dilute the tested compounds were used as negative controls. Before the end of the incubation period (4 h for cell lines and 24 h for PBMCs), 20 µL of alamarBlue stock solution (resazurin, Sigma-Aldrich, St. Louis, MO, USA) was added to each well.” left out
as §3

The next test concerns SCC9. Description: alamarBlue cytotoxicity assay, SCC9. Conditions: Homo sapiens, SCC-9, 72 h of incubation. The protocol: as §1, §2

Regarding `COc1cccc2c1C(=O)c1c(O)c3c(c(O)c1C2=O)C[C@@](O)(C(=O)CO)C[C@@H]3O[C@H]1C[C@H](N)[C@H](O)[C@H](C)O1` [Doxorubicin], the IC50 (as a rule, the concentration at which inhibition is half-maximal) turned out to be 0.05 µM with K562; 6.8 µM with APC02; 0.3 µM with HT-29; 0.2 µM with HCT-116; 0.07 µM in the test with SCC4; 0.1 µM with HaCat. Also, the half-maximal inhibitory concentration (IC50) in the test with PBMC was found to be 5.2 µM; in the test with APC03 it was 2.3 µM; with HepG2, 0.01 µM; in the test with HSC3, 0.34 µM; in the test on SCC25, 1.4 µM; in the test with AGP01, 1.89 µM. Also, the IC50 was determined as 1.5 µM with SCC15, 3.09 µM with CAL27, 0.01 µM in the test with HL60 and 0.8 µM in the test on SCC9.
